Each block holds one compound with its values, some of them ahead of it.
Columns and labels:
[1] = test system: adults with type 1 diabetes; test: Randomised, double-blind crossover trial of liraglutide adjunct to insulin, 4 weeks of treatment: glycaemic control and safety; assay type: in vivo, human; details: for Asymptomatic hypoglycaemic episodes, N = number of subjects / Asymptomatic hypoglycaemic episodes, percentage of subjects / Documented symptomatic hypoglycaemic episodes, N = number of subjects / Documented symptomatic hypoglycaemic episodes, percentage of subjects / Probable symptomatic hypoglycaemic episodes, E = number of events / Probable symptomatic hypoglycaemic episodes, N = number of subjects / Probable symptomatic hypoglycaemic episodes, percentage of subjects / Severe hypoglycaemic episodes, E = number of events / Severe hypoglycaemic episodes, N = number of subjects / Severe hypoglycaemic episodes, percentage of subjects / Total ADA classified hypoglycaemic episodes, E = number of events / Total ADA classified hypoglycaemic episodes, N = number of subjects / Total ADA classified hypoglycaemic episodes, percentage of subjects: during treatment
Description: Subjects received target dose for a minimum of 2 weeks.
After 4 weeks of treatment, estimated treatment differences in insulin dose, HbA1c, pulse and body weight were assessed. Hypoglycaemia and hypoglycaemic episodes and overall safety parameters were assessed throughout the treatment period.
Hypoglycaemia and/or hypoglycaemic episodes were defined and assessed according to the ADA Hypoglycaemic Classification (FIG. 3).

[2] = test system: adults with type 1 diabetes; test: Stepwise hypoglycaemic clamp at the end of each treatment period; assay type: in vivo, human
Description: A stepwise hypoglycaemic clamp was performed at the end of each treatment period via controlled i.v. insulin/glucose infusion (FIG. 5). The successive plasma glucose (PG) levels were 5.5, 3.5, 2.5 mmol/L (nadir), and 4.0 mmol/L (recovery). Counterregulatory hormones (glucagon, adrenalin, noradrenalin, cortisol, and growth hormone) and vital signs (pulse, blood pressure) were measured at each successive PG level during the clamp. Glucose infusion rate was also assessed.

[3] = in humans; cited from earlier work
[4] = 0.6 mg liraglutide, during the trial
[5] = 1.2 mg liraglutide, during the trial
[6] = 1.8 mg liraglutide, during the trial

Change in pulse from plasma glucose […] to nadir, estimated treatment difference ([2]; 0.6 mg group vs placebo): 0.6 BPM
Change in pulse from plasma glucose […] to nadir, estimated treatment difference ([2]; 1.2 mg group vs placebo): 2.3 BPM
Change in pulse from plasma glucose […] to nadir, estimated treatment difference ([2]; 1.8 mg group vs placebo): −3.4 BPM
Pulse compared to placebo ([2]; all plasma glucose levels, all liraglutide doses): significantly higher
Other counterregulatory hormones to hypoglycaemia, liraglutide vs placebo ([2]; during hypoglycaemic clamp): no systematic differences
Compound: CCCCCCCCCCCCCCCC(=O)N[C@@H](CCC(=O)NCCCC[C@H](NC(=O)[C@H](C)NC(=O)[C@H](C)NC(=O)[C@H](CCC(N)=O)NC(=O)CNC(=O)[C@H](CCC(=O)O)NC(=O)[C@H](CC(C)C)NC(=O)[C@H](Cc1ccc(O)cc1)NC(=O)[C@H](CO)NC(=O)[C@H](CO)NC(=O)[C@@H](NC(=O)[C@H](CC(=O)O)NC(=O)[C@H](CO)NC(=O)[C@@H](NC(=O)[C@H](Cc1ccccc1)NC(=O)[C@@H](NC(=O)CNC(=O)[C@H](CCC(=O)O)NC(=O)[C@H](C)NC(=O)[C@@H](N)Cc1cnc[nH]1)[C@@H](C)O)[C@@H](C)O)C(C)C)C(=O)N[C@@H](CCC(=O)O)C(=O)N[C@@H](Cc1ccccc1)C(=O)N[C@H](C(=O)N[C@@H](C)C(=O)N[C@@H](Cc1c[nH]c2ccccc12)C(=O)N[C@@H](CC(C)C)C(=O)N[C@H](C(=O)N[C@@H](CCCNC(=N)N)C(=O)NCC(=O)N[C@@H](CCCNC(=N)N)C(=O)NCC(=O)O)C(C)C)[C@@H](C)CC)C(=O)O [liraglutide]
AEs leading to withdrawal, E = number of events [1, 4]: 1
AEs leading to withdrawal, N = number of subjects [1, 4]: 1
AEs leading to withdrawal, percentage of subjects [1, 4]: 6.7%
Abdominal distention, E = number of events [1, 4]: 1
Abdominal distention, N = number of subjects [1, 4]: 1
Abdominal distention, percentage of subjects [1, 4]: 6.7%
Abdominal pain (N % E, given as a single 0) [1, 4]: 0/0
Adverse events, total number of events, E = number of events [1, 4]: 27
Adverse events, total number of events, N = number of subjects [1, 4]: 12
Adverse events, total number of events, percentage of subjects [1, 4]: 80.0%
Diarrhea (N % E, given as a single 0) [1, 4]: 0/
Dyspepsia (N % E, given as a single 0) [1, 4]: 0/0
Flatulence, E = number of events [1, 4]: 1
Flatulence, N = number of subjects [1, 4]: 1
Flatulence, percentage of subjects [1, 4]: 6.7%
Nausea, E = number of events [1, 4]: 8
Nausea, N = number of subjects [1, 4]: 8
Nausea, percentage of subjects [1, 4]: 53.3%
Regurgitation, E = number of events [1, 4]: 1
Regurgitation, N = number of subjects [1, 4]: 1
Regurgitation, percentage of subjects [1, 4]: 6.7%
Serious AEs (N % E, given as a single 0) [1, 4]: 0/0
Total number of GI AEs, E = number of events [1, 4]: 12
Total number of GI AEs, N = number of subjects [1, 4]: 10
Total number of GI AEs, percentage of subjects [1, 4]: 66.7%
Upper abdominal pain (N % E, given as a single 0) [1, 4]: 0/0
Vomiting, E = number of events [1, 4]: 1
Vomiting, N = number of subjects [1, 4]: 1
Vomiting, percentage of subjects [1, 4]: 6.7%
Asymptomatic hypoglycaemic episodes, N = number of subjects ([1]; 0.6 mg liraglutide): 12
Asymptomatic hypoglycaemic episodes, percentage of subjects ([1]; 0.6 mg liraglutide): 80.0%
Documented symptomatic hypoglycaemic episodes, N = number of subjects ([1]; 0.6 mg liraglutide): 13
Documented symptomatic hypoglycaemic episodes, percentage of subjects ([1]; 0.6 mg liraglutide): 86.7%
Probable symptomatic hypoglycaemic episodes, E = number of events ([1]; 0.6 mg liraglutide): 3
Probable symptomatic hypoglycaemic episodes, N = number of subjects ([1]; 0.6 mg liraglutide): 1
Probable symptomatic hypoglycaemic episodes, percentage of subjects ([1]; 0.6 mg liraglutide): 6.7%
Severe hypoglycaemic episodes, E = number of events ([1]; 0.6 mg liraglutide): 0 (0) 0/
Severe hypoglycaemic episodes, N = number of subjects ([1]; 0.6 mg liraglutide): 0 (0) 0/
Severe hypoglycaemic episodes, percentage of subjects ([1]; 0.6 mg liraglutide): 0 (0) 0/ %
Total ADA classified hypoglycaemic episodes, E = number of events ([1]; 0.6 mg liraglutide): 289
Total ADA classified hypoglycaemic episodes, N = number of subjects ([1]; 0.6 mg liraglutide): 14
Total ADA classified hypoglycaemic episodes, percentage of subjects ([1]; 0.6 mg liraglutide): 93.3%
AEs leading to withdrawal, E = number of events [1, 5]: 1
AEs leading to withdrawal, N = number of subjects [1, 5]: 1
AEs leading to withdrawal, percentage of subjects [1, 5]: 7.1%
Abdominal distention, E = number of events [1, 5]: 3
Abdominal distention, N = number of subjects [1, 5]: 3
Abdominal distention, percentage of subjects [1, 5]: 21.4%
Abdominal pain, E = number of events [1, 5]: 1
Abdominal pain, N = number of subjects [1, 5]: 1
Abdominal pain, percentage of subjects [1, 5]: 7.1%
Adverse events, total number of events, E = number of events [1, 5]: 45
Adverse events, total number of events, N = number of subjects [1, 5]: 14
Adverse events, total number of events, percentage of subjects [1, 5]: 100%
Diarrhea, E = number of events [1, 5]: 1
Diarrhea, N = number of subjects [1, 5]: 1
Diarrhea, percentage of subjects [1, 5]: 7.1%
Dyspepsia, E = number of events [1, 5]: 1
Dyspepsia, N = number of subjects [1, 5]: 1
Dyspepsia, percentage of subjects [1, 5]: 7.1%
Flatulence, E = number of events [1, 5]: 1
Flatulence, N = number of subjects [1, 5]: 1
Flatulence, percentage of subjects [1, 5]: 7.1%
Nausea, E = number of events [1, 5]: 14
Nausea, N = number of subjects [1, 5]: 11
Nausea, percentage of subjects [1, 5]: 78.6%
Regurgitation, E = number of events [1, 5]: 2
Regurgitation, N = number of subjects [1, 5]: 2
Regurgitation, percentage of subjects [1, 5]: 14.3%
Serious AEs (N % E, given as a single 0) [1, 5]: 0/0
Total number of GI AEs, E = number of events [1, 5]: 24
Total number of GI AEs, N = number of subjects [1, 5]: 12
Total number of GI AEs, percentage of subjects [1, 5]: 85.7%
Upper abdominal pain (N % E, given as a single 0) [1, 5]: 0/0
Vomiting, E = number of events [1, 5]: 1
Vomiting, N = number of subjects [1, 5]: 1
Vomiting, percentage of subjects [1, 5]: 7.1%
Asymptomatic hypoglycaemic episodes, N = number of subjects ([1]; 1.2 mg liraglutide): 10
Asymptomatic hypoglycaemic episodes, percentage of subjects ([1]; 1.2 mg liraglutide): 71.4%
Documented symptomatic hypoglycaemic episodes, N = number of subjects ([1]; 1.2 mg liraglutide): 12
Documented symptomatic hypoglycaemic episodes, percentage of subjects ([1]; 1.2 mg liraglutide): 85.7%
Probable symptomatic hypoglycaemic episodes, E = number of events ([1]; 1.2 mg liraglutide): 1
Probable symptomatic hypoglycaemic episodes, N = number of subjects ([1]; 1.2 mg liraglutide): 1
Probable symptomatic hypoglycaemic episodes, percentage of subjects ([1]; 1.2 mg liraglutide): 7.1%
Severe hypoglycaemic episodes, E = number of events ([1]; 1.2 mg liraglutide): 0 (0) 0/
Severe hypoglycaemic episodes, N = number of subjects ([1]; 1.2 mg liraglutide): 0 (0) 0/
Severe hypoglycaemic episodes, percentage of subjects ([1]; 1.2 mg liraglutide): 0 (0) 0/ %
Total ADA classified hypoglycaemic episodes, E = number of events ([1]; 1.2 mg liraglutide): 263
Total ADA classified hypoglycaemic episodes, N = number of subjects ([1]; 1.2 mg liraglutide): 13
Total ADA classified hypoglycaemic episodes, percentage of subjects ([1]; 1.2 mg liraglutide): 92.9%
AEs leading to withdrawal, E = number of events [1, 6]: 1
AEs leading to withdrawal, N = number of subjects [1, 6]: 1
AEs leading to withdrawal, percentage of subjects [1, 6]: 7.1%
Abdominal distention, E = number of events [1, 6]: 5
Abdominal distention, N = number of subjects [1, 6]: 5
Abdominal distention, percentage of subjects [1, 6]: 35.7%
Abdominal pain (N % E, given as a single 0) [1, 6]: 0/
Adverse events, total number of events, E = number of events [1, 6]: 54
Adverse events, total number of events, N = number of subjects [1, 6]: 13
Adverse events, total number of events, percentage of subjects [1, 6]: 92.9%
Diarrhea, E = number of events [1, 6]: 5
Diarrhea, N = number of subjects [1, 6]: 5
Diarrhea, percentage of subjects [1, 6]: 35.7%
Dyspepsia, E = number of events [1, 6]: 1
Dyspepsia, N = number of subjects [1, 6]: 1
Dyspepsia, percentage of subjects [1, 6]: 7.1%
Flatulence (N % E, given as a single 0) [1, 6]: 0/0
Nausea, E = number of events [1, 6]: 13
Nausea, N = number of subjects [1, 6]: 11
Nausea, percentage of subjects [1, 6]: 78.6%
Regurgitation, E = number of events [1, 6]: 1
Regurgitation, N = number of subjects [1, 6]: 1
Regurgitation, percentage of subjects [1, 6]: 7.1%
Serious AEs (N % E, given as a single 0) [1, 6]: 0/0
Total number of GI AEs, E = number of events [1, 6]: 31
Total number of GI AEs, N = number of subjects [1, 6]: 13
Total number of GI AEs, percentage of subjects [1, 6]: 92.9%
Upper abdominal pain, E = number of events [1, 6]: 2
Upper abdominal pain, N = number of subjects [1, 6]: 2
Upper abdominal pain, percentage of subjects [1, 6]: 14.3%
Vomiting, E = number of events [1, 6]: 4
Vomiting, N = number of subjects [1, 6]: 3
Vomiting, percentage of subjects [1, 6]: 21.4%
Asymptomatic hypoglycaemic episodes, N = number of subjects ([1]; 1.8 mg liraglutide): 13
Asymptomatic hypoglycaemic episodes, percentage of subjects ([1]; 1.8 mg liraglutide): 92.9%
Documented symptomatic hypoglycaemic episodes, N = number of subjects ([1]; 1.8 mg liraglutide): 14
Documented symptomatic hypoglycaemic episodes, percentage of subjects ([1]; 1.8 mg liraglutide): 100%
Probable symptomatic hypoglycaemic episodes, E = number of events ([1]; 1.8 mg liraglutide): 4
Probable symptomatic hypoglycaemic episodes, N = number of subjects ([1]; 1.8 mg liraglutide): 1
Probable symptomatic hypoglycaemic episodes, percentage of subjects ([1]; 1.8 mg liraglutide): 7.1%
Severe hypoglycaemic episodes, E = number of events ([1]; 1.8 mg liraglutide): 0 (0) 0/
Severe hypoglycaemic episodes, N = number of subjects ([1]; 1.8 mg liraglutide): 0 (0) 0/
Severe hypoglycaemic episodes, percentage of subjects ([1]; 1.8 mg liraglutide): 0 (0) 0/ %
Total ADA classified hypoglycaemic episodes, E = number of events ([1]; 1.8 mg liraglutide): 316
Total ADA classified hypoglycaemic episodes, N = number of subjects ([1]; 1.8 mg liraglutide): 14
Total ADA classified hypoglycaemic episodes, percentage of subjects ([1]; 1.8 mg liraglutide): 100%
Number of adverse events (AEs) compared to placebo ([1]; during liraglutide treatment): higher
Gastrointestinal (GI) AEs compared to placebo ([1]; liraglutide adjunct to insulin): more
Number of hypoglycaemias or overall number of hypoglycaemic episodes (ADA classification) ([1]; liraglutide adjunct to insulin): did not affect
Severity of GI AEs ([1]; liraglutide adjunct to insulin): mild or moderate
Safety or tolerability issues ([1]; short-term trial, subjects with type 1 diabetes): No unexpected liraglutide-related safety or tolerability issues
Systolic and diastolic blood pressure, liraglutide vs placebo ([2]; during hypoglycaemic clamp): no systematic differences

Compound: GLP-1: glucagon-like peptide-1, a product of proglucagon, gut hormone
plasma half-life [3]: 2 min

From patent US20160136246A1, “Novel Uses of GLP-1 Receptor Agonists in Patients Treated with Insulin and/or Suffering from Type 1 Diabetes” (NOVO NORDISK A/S, priority 2013, published 2016)
